According to US9751826B2, “4-vinyl-2-cyclopenten-1-one derivatives, the production thereof, and the use of same as an antibiotic agent” (Centre National de la Recherche Scientifique (CNRS), priority 2014, dated 2017):

Assays:
Assay type in all cases: cell-based
[1] = test system: Enterobacter cloacae (ATCC 13047); test: Antibiotic test, inhibition zone technique
Experimental: (§1) Once purified, the molecule of the compound of formula (Ia) is redissolved in suitable solvents and at a suitable concentration, preferentially in dimethyl sulfoxide (DMSO) at a concentration of 10 mg/ml. This initial solution is then diluted according to the various biological tests to be performed. Two series of tests were carried out. The molecule of the compound of formula (Ia) was used in antibiotic tests, employing the inhibition zone technique, on various Gram-positive and Gram-negative bacteria, in the amount of 100 μg. In parallel, similar tests are carried out with control antibiotics in varying amounts depending on the antibiotic, either 10 μg or 30 μg.

[2] = test system: Escherichia coli (ATCC 25922); test: Antibiotic test, inhibition zone technique
Experimental: as §1

[3] = test system: Micrococcus luteus (ATCC 10240); test: Antibiotic test, inhibition zone technique
Experimental: as §1

[4] = test system: Klebsiella pneumoniae (ATCC 1001); test: Antibiotic test, inhibition zone technique
Experimental: as §1

MRC5 cells = test: Cytotoxicity test on non-cancerous MRC5 cells
Experimental: (§2) Once purified, the molecule of the compound of formula (Ia) is redissolved in suitable solvents and at a suitable concentration, preferentially in dimethyl sulfoxide (DMSO) at a concentration of 10 mg/ml. This initial solution is then diluted according to the various biological tests to be performed. Two series of tests were carried out. Tests for cytotoxicity on a KB cancer cell line (carcinoma) and an equivalent line of non-cancerous MRC5 cells. The following table presents the percentage of inhibition of growth by the molecule of the compound of formula (Ia) at concentrations of 1 and 10 micromolar.

[5] = test system: various target pathogenic microorganisms; test: Antibiotic activity at 1 to 100 μg (FIG. 7); details: amounts of 1 to 100 μg
Experimental: The molecule of the compound of formula (Ia) was used in antibiotic tests, employing the inhibition zone technique, on various Gram-positive and Gram-negative bacteria, in the amount of 100 μg. In parallel, similar tests are carried out with control antibiotics in varying amounts depending on the antibiotic, either 10 μg or 30 μg.
FIG. 7 illustrates the antibiotic activity of the compound of formula (Ia) on various target pathogenic microorganisms in amounts of 1 to 100 μg in comparison with chloramphenicol and gentamycin at 30 μg and 10 μg, respectively. […] Indeed, inhibition by 1 μg of the compound of formula (Ia) is equivalent to that obtained with 30 μg of chloramphenicol. The same observations and conclusions can be made for all the strains that are sensitive to the compound of formula (Ia) as shown in FIG. 7.

[6] = test system: Acinetobacter baumannii (ATCC 19606); test: Antibiotic test, inhibition zone technique
Experimental: as §1

[7] = test system: Bacillus subtilis (ATCC 6633); test: Antibiotic test, inhibition zone technique
Experimental: as §1

[8] = test system: Staphylococcus aureus (ATCC 25923); test: Antibiotic test, inhibition zone technique
Experimental: as §1

[9] = test system: Streptococcus pneumoniae (ATCC 49619); test: Antibiotic test, inhibition zone technique
Experimental: as §1

[10] = test system: KB cancer cell line (carcinoma); test: Cytotoxicity test on KB cancer cell line
Experimental: as §2

[11] = test system: Pseudomonas aeruginosa (ATCC 27853); test: Antibiotic test, inhibition zone technique; details: 10 μg deposited
Experimental: as §1

O=C(N[C@H](CO)[C@H](O)c1ccc([N+](=O)[O-])cc1)C(Cl)Cl [Chloramphenicol, reference compound]
Inhibition zone by the reference antibiotics ([1]; 30 μg deposited): 1.5 cm | Inhibition zone by the reference antibiotics ([2]; 30 μg deposited): 1.0 cm | Inhibition zone by the reference antibiotics ([3]; 30 μg deposited): 3.2 cm | Inhibition zone by the reference antibiotics ([4]; 30 μg deposited): 2.5 cm

COC(=O)/C=C/[C@@]1(O)C=CC(=O)C1 [compound of formula (Ia)]
cytotoxicity against healthy cells (MRC5 cells; 1 and 10 micromolar): no cytotoxicity is observed | inhibition at 10 µM (MRC5 cells; Homo sapiens, 10^−5 M, read-out: percentage of inhibition of growth): 2 ± 12% | inhibition at 1 µM (MRC5 cells; Homo sapiens, 10^−6 M, read-out: percentage of inhibition of growth): 1 ± 3% | dose dependence of antibiotic activity [5]: dose-dependent | Inhibition zone for 100 μg of the compound of formula (Ia) ([1]; 100 μg deposited): 1.2 cm | Inhibition zone for 100 μg of the compound of formula (Ia) ([2]; 100 μg deposited): 2.7 cm | amount giving inhibition equivalent to that of 30 μg of chloramphenicol ([2]; FIG. 7): 1 µg | antibiotic activity compared with chloramphenicol ([2]; FIG. 7, 1 to 100 μg vs chloramphenicol 30 μg): much higher activity than that of chloramphenicol | Inhibition zone for 100 μg of the compound of formula (Ia) ([3]; 100 μg deposited): 3.2 cm | Inhibition zone for 100 μg of the compound of formula (Ia) ([6]; 100 μg deposited): 3.2 cm | Inhibition zone for 100 μg of the compound of formula (Ia) ([7]; 100 μg deposited): 2.7 cm | Inhibition zone for 100 μg of the compound of formula (Ia) ([4]; 100 μg deposited): 2.9 cm | Inhibition zone for 100 μg of the compound of formula (Ia) ([8]; 100 μg deposited): 3.0 cm | Inhibition zone for 100 μg of the compound of formula (Ia) ([9]; 100 μg deposited): 2.0 cm | cytotoxicity against tumor cells ([10]; 1 and 10 micromolar): no cytotoxicity is observed | inhibition at 10 µM ([10]; Homo sapiens, KB cells, 10^−5 M, read-out: percentage of inhibition of growth): 0% | inhibition at 1 µM ([10]; Homo sapiens, KB cells, 10^−6 M, read-out: percentage of inhibition of growth): 0%

Gentamycin [reference compound]
Inhibition zone by the reference antibiotics ([6]; 10 μg deposited): 0.9 cm | Inhibition zone by the reference antibiotics ([7]; 10 μg deposited): 1.2 cm | Inhibition zone by the reference antibiotics ([8]; 10 μg deposited): 1.2 cm | Inhibition zone by the reference antibiotics [11]: 1.3 cm

Penicillin [reference compound]
Inhibition zone by the reference antibiotics ([9]; 30 μg deposited): 3.5 cm
